Test system: primary human T cells
Test: Surface CAR and surface IL12 in CAR+ gate after 20 hours vardenafil, CD19-CAR-P2A-mbIL12-PDE5 constructs (Example 8; Table 22)
Assay type: cell-based
Settings: 5 μM Vardenafil, CAR+ cell gate, regulated CD19-CAR-P2A-mbIL12-PDE5 constructs
Experimental: On day 0, primary human T cells were stimulated with Dynabeads (T-expander CD3/CD28) at a 3:1 bead: cell ratio in media containing 10% fetal bovine serum (FBS). The next day, lentivirus produced with constructs OT-001407 (CAR only control), OT-001895, OT-001894, OT-001891, OT-002044 were added in the presence of reduced serum (5% FBS). On day 2, the cells were diluted 1:2 with fresh 10% FBS media. […] After overnight incubation, transduction efficiency was analyzed by flow cytometry using CD19-Fc to detect surface CAR expression. Surface IL12 expression within the CAR+ cell gate was detected with an anti-IL12p70 antibody (BD, Franklin Lakes, N.J.) and is shown in Table 22.

Compound: CCCc1nc(C)c2c(=O)[nH]c(-c3cc(S(=O)(=O)N4CCN(CC)CC4)ccc3OCC)nn12 [vardenafil, Vardenafil]
- increases in expression of surface IL12 compared to vehicle control: 17-24 fold

Source: patent US12227551B2, “Membrane bound IL12 compositions and methods for tunable regulation” (Obsidian Therapeutics, Inc., priority 2018, dated 2025)
